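Test compounds were applied to cells in 96-well plates for 48 hours at 5 doses. At the TGI there is no net growth.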
Tests used:
Assay in all cases: NCI-60 cell line screen, 48 h
[1] = tested on: 786-0 renal
[2] = tested on: A549 NSCLC
[3] = tested on: ACHN renal
[4] = tested on: CAKI-1 renal
[5] = tested on: CCRF-CEM leukemia
[6] = tested on: COLO 205 colon
[7] = tested on: DLD-1 colon
[8] = tested on: DMS 114 small cell lung
[9] = tested on: DMS 273 small cell lung
[10] = tested on: EKVX NSCLC
[11] = tested on: HCC-2998 colon
[12] = tested on: HCT-116 colon
[13] = tested on: HCT-15 colon
[14] = tested on: HL-60(TB) leukemia
[15] = tested on: HOP-18 NSCLC
[16] = tested on: HOP-92 NSCLC
[17] = tested on: HT29 colon
[18] = tested on: IGROV1 ovarian
[19] = tested on: K-562 leukemia
[20] = tested on: KM12 colon
[21] = tested on: KM20L2 colon
[22] = tested on: LOX IMVI melanoma
[23] = tested on: LXFL 529 NSCLC
[24] = tested on: M19-MEL melanoma
[25] = tested on: MALME-3M melanoma
[26] = tested on: MOLT-4 leukemia
[27] = tested on: NCI-H226 lung
[28] = tested on: NCI-H23 lung
[29] = tested on: NCI-H460 lung
[30] = tested on: OVCAR-4 ovarian
[31] = tested on: OVCAR-5 ovarian
[32] = tested on: OVCAR-8 ovarian
[33] = tested on: RXF 393 renal
[34] = tested on: RXF-631 renal
[35] = tested on: SF-268 CNS
[36] = tested on: SF-295 CNS
[37] = tested on: SF-539 CNS
[38] = tested on: SK-MEL-2 melanoma
[39] = tested on: SK-MEL-28 melanoma
[40] = tested on: SK-OV-3 ovarian
[41] = tested on: SN12C renal
[42] = tested on: SNB-19 CNS
[43] = tested on: SNB-78 CNS
[44] = tested on: SR leukemia
[45] = tested on: SW-620 colon
[46] = tested on: TK-10 renal
[47] = tested on: U251 CNS
[48] = tested on: UACC-257 melanoma
[49] = tested on: UACC-62 melanoma
[50] = tested on: UO-31 renal
[51] = tested on: HOP-62 NSCLC
[52] = tested on: M14 melanoma
[53] = tested on: NCI-H522 lung
[54] = tested on: OVCAR-3 ovarian
[55] = tested on: RPMI-8226 leukemia
[56] = tested on: SK-MEL-5 melanoma
[57] = tested on: SNB-75 CNS
[58] = tested on: XF 498 CNS
[59] = tested on: A498 renal

COc1ccc(NC(=O)CC/C(CC(=O)c2ccccc2Cl)=N\Nc2nnc(C)n2N)cc1
TGI [1]: > 100 µM | TGI [2]: > 100 µM | TGI [3]: > 100 µM | TGI [4]: > 100 µM | TGI [5]: > 100 µM | TGI [6]: > 100 µM | TGI [7]: > 100 µM | TGI [8]: > 100 µM | TGI [9]: > 100 µM | TGI [10]: > 100 µM | TGI [11]: > 100 µM | TGI [12]: > 100 µM | TGI [13]: > 100 µM | TGI [14]: > 100 µM | TGI [15]: > 100 µM | TGI [16]: > 100 µM | TGI [17]: > 100 µM | TGI [18]: > 100 µM | TGI [19]: > 100 µM | TGI [20]: > 100 µM | TGI [21]: > 100 µM | TGI [22]: > 100 µM | TGI [23]: > 100 µM | TGI [24]: > 100 µM | TGI [25]: > 100 µM | TGI [26]: > 100 µM | TGI [27]: > 100 µM | TGI [28]: > 100 µM | TGI [29]: > 100 µM | TGI [30]: > 100 µM | TGI [31]: > 100 µM | TGI [32]: > 100 µM | TGI [33]: > 100 µM | TGI [34]: > 100 µM | TGI [35]: > 100 µM | TGI [36]: > 100 µM | TGI [37]: > 100 µM | TGI [38]: > 100 µM | TGI [39]: > 100 µM | TGI [40]: > 100 µM | TGI [41]: > 100 µM | TGI [42]: > 100 µM | TGI [43]: > 100 µM | TGI [44]: > 100 µM | TGI [45]: > 100 µM | TGI [46]: > 100 µM | TGI [47]: > 100 µM | TGI [48]: > 100 µM | TGI [49]: > 100 µM | TGI [50]: > 100 µM

Cc1cc2c(cc1C)N1Cc3c(ccc(C)c3C)N(C2)C1 (tested in a mixture with another compound)
TGI [1]: > 100 µM | TGI [2]: > 100 µM | TGI [5]: > 100 µM | TGI [6]: > 100 µM | TGI [7]: > 100 µM | TGI [8]: > 100 µM | TGI [9]: > 100 µM | TGI [10]: > 100 µM | TGI [11]: > 100 µM | TGI [12]: > 100 µM | TGI [14]: > 100 µM | TGI [15]: > 100 µM | TGI [51]: > 100 µM | TGI [17]: > 100 µM | TGI [18]: > 100 µM | TGI [19]: > 100 µM | TGI [20]: > 100 µM | TGI [21]: > 100 µM | TGI [22]: > 100 µM | TGI [23]: > 100 µM | TGI [52]: > 100 µM | TGI [24]: > 100 µM | TGI [26]: > 100 µM | TGI [27]: > 100 µM | TGI [28]: > 100 µM | TGI [29]: > 100 µM | TGI [53]: > 100 µM | TGI [54]: > 100 µM | TGI [30]: > 100 µM | TGI [32]: > 100 µM | TGI [55]: > 100 µM | TGI [33]: > 100 µM | TGI [35]: > 100 µM | TGI [36]: > 100 µM | TGI [37]: > 100 µM | TGI [39]: > 100 µM | TGI [56]: > 100 µM | TGI [40]: > 100 µM | TGI [42]: > 100 µM | TGI [57]: > 100 µM | TGI [43]: > 100 µM | TGI [45]: > 100 µM | TGI [46]: > 100 µM | TGI [47]: > 100 µM | TGI [49]: > 100 µM | TGI [58]: > 100 µM

Cn1c(=O)nc2n(-c3ccc(F)cc3)c3ccccc3nc-2c1=O
TGI [1]: > 100 µM | TGI [59]: 93.4 µM | TGI [2]: 48.6 µM | TGI [3]: 49.7 µM | TGI [4]: 73.3 µM | TGI [5]: 63.7 µM | TGI [6]: 22.1 µM | TGI [7]: 62.1 µM | TGI [8]: 28.6 µM | TGI [9]: 36 µM | TGI [10]: 32 µM | TGI [11]: 49.8 µM | TGI [12]: 37.9 µM | TGI [13]: 37.4 µM | TGI [15]: > 100 µM | TGI [51]: > 100 µM | TGI [17]: 38.7 µM | TGI [18]: 56.5 µM | TGI [19]: 45.8 µM | TGI [20]: > 100 µM | TGI [21]: 48.7 µM | TGI [23]: > 100 µM | TGI [52]: 67.3 µM | TGI [24]: 10.6 µM | TGI [25]: 23 µM | TGI [26]: 62.8 µM | TGI [27]: > 100 µM | TGI [28]: 42.8 µM | TGI [29]: 80.7 µM | TGI [53]: 35.4 µM | TGI [54]: 11 µM | TGI [30]: 27.8 µM | TGI [31]: 42.2 µM | TGI [32]: 67.4 µM | TGI [55]: 70.9 µM | TGI [33]: 79.8 µM | TGI [35]: > 100 µM | TGI [36]: 40.8 µM | TGI [37]: 46.5 µM | TGI [38]: 51.1 µM | TGI [56]: 25.8 µM | TGI [40]: > 100 µM | TGI [41]: 56.6 µM | TGI [42]: 37.4 µM | TGI [57]: 91.6 µM | TGI [43]: 42.2 µM | TGI [45]: 34 µM | TGI [46]: 89.1 µM | TGI [47]: 71.4 µM | TGI [48]: 28.5 µM | TGI [49]: 25 µM | TGI [50]: > 100 µM | TGI [58]: 34.3 µM

c1ccc(-c2nc3sccn3n2)cc1
TGI [59]: > 100 µM | TGI [2]: > 100 µM | TGI [3]: > 100 µM | TGI [5]: > 100 µM | TGI [8]: > 100 µM | TGI [9]: > 100 µM | TGI [10]: > 100 µM | TGI [12]: > 100 µM | TGI [14]: > 100 µM | TGI [51]: > 100 µM | TGI [16]: > 100 µM | TGI [17]: > 100 µM | TGI [18]: > 100 µM | TGI [19]: > 100 µM | TGI [20]: > 100 µM | TGI [52]: > 100 µM | TGI [24]: > 100 µM | TGI [26]: > 100 µM | TGI [28]: > 100 µM | TGI [29]: > 100 µM | TGI [53]: > 100 µM | TGI [31]: > 100 µM | TGI [32]: > 100 µM | TGI [33]: > 100 µM | TGI [34]: > 100 µM | TGI [35]: > 100 µM | TGI [36]: > 100 µM | TGI [39]: > 100 µM | TGI [40]: > 100 µM | TGI [42]: > 100 µM | TGI [44]: > 100 µM | TGI [46]: > 100 µM | TGI [47]: > 100 µM | TGI [48]: > 100 µM | TGI [49]: > 100 µM | TGI [50]: > 100 µM

Source: PubChem BioAssay (NCI)
